# In paper PMC12136037, “Type II kinase inhibitors that target Parkinson’s disease–associated LRRK2” (Science Advances, 2025):
# What was measured:
# Assay in all cases: 33PanQinase kinome-wide selectivity profile (Reaction Biology)
# Format in all cases: biochemical
# [1] = target: T1, 350 wild-type kinases (Homo sapiens, UniProt Q13554); conditions: kinase CAMK2B, ATP 3 µM, singlicate
# T1 construct: purchased Reaction Biology (assay service)
# Protocol: (§1) Compound RN341 was tested at two concentrations of 1 and 10 μM against a panel of 350 wild-type kinases in the ^33PanQinase assay. The assay was performed by Reaction Biology (www.reactionbiology.com/services/kinase-assays/kinase-panel-screening/).
# [2] = target: T2, 350 wild-type kinases (Homo sapiens, UniProt P49336); conditions: kinase CDK8/CycC, ATP 1 µM, singlicate
# T2 construct: purchased Reaction Biology (assay service)
# T2 sequence (P49336 whole entry): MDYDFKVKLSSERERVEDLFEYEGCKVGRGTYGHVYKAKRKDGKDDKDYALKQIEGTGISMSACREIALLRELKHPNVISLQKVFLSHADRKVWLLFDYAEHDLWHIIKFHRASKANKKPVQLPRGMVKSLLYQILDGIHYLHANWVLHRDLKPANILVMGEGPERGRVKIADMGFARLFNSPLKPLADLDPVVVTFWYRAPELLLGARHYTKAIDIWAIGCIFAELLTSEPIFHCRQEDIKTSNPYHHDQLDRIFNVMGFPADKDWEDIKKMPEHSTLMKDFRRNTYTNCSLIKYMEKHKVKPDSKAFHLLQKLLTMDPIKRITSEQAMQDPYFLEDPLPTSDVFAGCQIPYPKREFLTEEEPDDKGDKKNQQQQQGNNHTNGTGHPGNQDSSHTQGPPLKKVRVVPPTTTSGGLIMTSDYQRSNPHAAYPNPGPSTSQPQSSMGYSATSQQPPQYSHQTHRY
# Protocol: as §1
# [3] = target: T3, 350 wild-type kinases (Homo sapiens, UniProt P33981); conditions: 1 μM, TTK; read-out: TTK activity, % of control
# T3 construct: purchased Reaction Biology (assay service)
# Protocol: as §1
# [4] = target: T4, 350 wild-type kinases (Homo sapiens, UniProt Q00536); conditions: kinase CDK16/CycY, ATP 0,3 µM, singlicate
# T4 construct: purchased Reaction Biology (assay service)
# Protocol: as §1
# [5] = target: T5, 350 wild-type kinases (Homo sapiens, UniProt P31751); conditions: kinase AKT2, ATP 10 µM, singlicate
# T5 construct: purchased Reaction Biology (assay service)
# T5 sequence (P31751 whole entry): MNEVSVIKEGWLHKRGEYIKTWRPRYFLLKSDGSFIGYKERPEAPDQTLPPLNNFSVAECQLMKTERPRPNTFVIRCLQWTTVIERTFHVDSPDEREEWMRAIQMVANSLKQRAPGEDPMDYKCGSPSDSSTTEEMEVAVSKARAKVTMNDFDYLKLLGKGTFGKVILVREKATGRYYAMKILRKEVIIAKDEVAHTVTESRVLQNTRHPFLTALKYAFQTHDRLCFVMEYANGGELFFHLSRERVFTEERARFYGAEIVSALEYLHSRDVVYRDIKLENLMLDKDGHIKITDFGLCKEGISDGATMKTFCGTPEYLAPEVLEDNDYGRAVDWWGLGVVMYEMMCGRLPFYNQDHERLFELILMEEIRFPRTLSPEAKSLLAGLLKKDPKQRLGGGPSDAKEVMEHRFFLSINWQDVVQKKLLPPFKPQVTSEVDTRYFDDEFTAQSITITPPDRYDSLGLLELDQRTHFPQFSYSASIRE
# Protocol: as §1
# [6] = target: T6, 350 wild-type kinases (Homo sapiens, UniProt P49674); conditions: kinase CK1epsilon, ATP 0,3 µM, singlicate
# T6 construct: purchased Reaction Biology (assay service)
# Protocol: as §1
# [7] = target: T7, 350 wild-type kinases (Homo sapiens, UniProt P49759); conditions: kinase CLK1, ATP 0,3 µM, singlicate
# T7 construct: purchased Reaction Biology (assay service)
# T7 sequence (P49759 whole entry): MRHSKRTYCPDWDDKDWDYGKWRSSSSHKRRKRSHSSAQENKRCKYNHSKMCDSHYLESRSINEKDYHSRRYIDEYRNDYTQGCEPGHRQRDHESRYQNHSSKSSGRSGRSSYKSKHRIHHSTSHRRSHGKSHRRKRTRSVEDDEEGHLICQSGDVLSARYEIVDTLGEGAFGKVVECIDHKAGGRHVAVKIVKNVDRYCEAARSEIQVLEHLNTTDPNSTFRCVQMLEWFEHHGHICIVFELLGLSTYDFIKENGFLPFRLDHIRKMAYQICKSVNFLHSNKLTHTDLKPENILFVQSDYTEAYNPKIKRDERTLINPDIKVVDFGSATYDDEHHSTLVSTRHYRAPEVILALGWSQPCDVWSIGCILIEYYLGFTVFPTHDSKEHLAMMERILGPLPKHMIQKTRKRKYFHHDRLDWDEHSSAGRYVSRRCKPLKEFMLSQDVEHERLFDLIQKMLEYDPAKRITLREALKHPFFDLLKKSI
# Protocol: as §1
# [8] = target: T8, 350 wild-type kinases (Homo sapiens, UniProt Q9UQB9); conditions: kinase AuroraC, ATP 3 µM, singlicate
# T8 construct: purchased Reaction Biology (assay service)
# Protocol: as §1
# [9] = target: T9, 350 wild-type kinases (Homo sapiens, UniProt P48730); conditions: kinase CK1delta, ATP 0,3 µM, singlicate
# T9 construct: purchased Reaction Biology (assay service)
# Protocol: as §1
# [10] = target: T10, 350 wild-type kinases (Homo sapiens, UniProt Q14004); conditions: kinase CDK13/CycK, ATP 0,1 µM, singlicate
# T10 construct: purchased Reaction Biology (assay service)
# Protocol: as §1
# [11] = target: T11, 350 wild-type kinases (Homo sapiens, UniProt O14757); conditions: kinase CHK1, ATP 1 µM, singlicate
# T11 construct: purchased Reaction Biology (assay service)
# Protocol: as §1
# [12] = target: T12, 350 wild-type kinases (Homo sapiens, UniProt Q16566); conditions: kinase CAMK4, ATP 1 µM, singlicate
# T12 construct: purchased Reaction Biology (assay service)
# T12 sequence (Q16566 whole entry): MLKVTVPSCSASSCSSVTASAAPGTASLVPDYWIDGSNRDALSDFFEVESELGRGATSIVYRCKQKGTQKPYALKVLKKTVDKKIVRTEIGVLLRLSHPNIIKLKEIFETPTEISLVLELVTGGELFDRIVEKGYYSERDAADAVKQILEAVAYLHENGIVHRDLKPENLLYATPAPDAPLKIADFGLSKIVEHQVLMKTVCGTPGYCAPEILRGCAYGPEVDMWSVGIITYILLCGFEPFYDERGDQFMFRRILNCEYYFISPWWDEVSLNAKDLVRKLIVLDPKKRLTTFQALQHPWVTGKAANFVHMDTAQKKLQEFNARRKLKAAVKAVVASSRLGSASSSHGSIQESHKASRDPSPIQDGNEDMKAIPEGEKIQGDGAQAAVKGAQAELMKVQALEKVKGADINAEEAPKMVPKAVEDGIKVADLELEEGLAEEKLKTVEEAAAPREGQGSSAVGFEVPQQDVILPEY
# Protocol: as §1
# [13] = target: T13, 350 wild-type kinases (Homo sapiens, UniProt Q13627); conditions: kinase DYRK1A, ATP 1 µM, singlicate
# T13 construct: purchased Reaction Biology (assay service)
# Protocol: as §1
# [14] = target: T14, 350 wild-type kinases (Homo sapiens, UniProt Q00526); conditions: ATP 3 µM, singlicate; for Residual activity (% of control), CDK3/CycC: kinase CDK3/CycC; for Residual activity (% of control), CDK3/CycE1: kinase CDK3/CycE1
# T14 construct: purchased Reaction Biology (assay service)
# T14 sequence (Q00526 whole entry): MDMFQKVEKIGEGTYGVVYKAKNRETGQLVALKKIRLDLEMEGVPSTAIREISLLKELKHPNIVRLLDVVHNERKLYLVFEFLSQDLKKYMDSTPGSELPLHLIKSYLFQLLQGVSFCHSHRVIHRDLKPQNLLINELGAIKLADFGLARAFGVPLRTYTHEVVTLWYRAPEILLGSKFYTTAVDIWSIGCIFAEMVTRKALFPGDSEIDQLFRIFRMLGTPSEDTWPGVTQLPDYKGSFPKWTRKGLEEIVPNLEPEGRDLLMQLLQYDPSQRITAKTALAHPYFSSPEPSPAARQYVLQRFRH
# Protocol: as §1
# [15] = target: T15, 350 wild-type kinases (Homo sapiens, UniProt O43293); conditions: kinase DAPK3, ATP 0,1 µM, singlicate
# T15 construct: purchased Reaction Biology (assay service)
# T15 sequence (O43293 whole entry): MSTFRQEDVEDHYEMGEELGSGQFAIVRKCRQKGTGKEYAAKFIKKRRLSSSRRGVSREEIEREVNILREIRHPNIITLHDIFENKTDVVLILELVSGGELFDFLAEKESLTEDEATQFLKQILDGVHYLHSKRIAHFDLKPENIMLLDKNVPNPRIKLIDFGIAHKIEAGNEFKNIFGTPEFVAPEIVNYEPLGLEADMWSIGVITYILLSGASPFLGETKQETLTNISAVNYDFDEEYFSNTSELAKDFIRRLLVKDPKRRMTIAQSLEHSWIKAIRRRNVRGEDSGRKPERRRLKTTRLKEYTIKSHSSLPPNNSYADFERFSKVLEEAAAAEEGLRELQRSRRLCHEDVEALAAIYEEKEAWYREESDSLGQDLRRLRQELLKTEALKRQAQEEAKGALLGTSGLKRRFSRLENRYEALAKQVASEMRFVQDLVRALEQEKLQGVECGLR
# Protocol: as §1
# [16] = target: T16, 350 wild-type kinases (Homo sapiens, UniProt O94921); conditions: kinase CDK14/CycY, ATP 0,1 µM, singlicate
# T16 construct: purchased Reaction Biology (assay service)
# Protocol: as §1
# [17] = target: T17, 350 wild-type kinases (Homo sapiens, UniProt P10398, Y301D/Y302D); conditions: kinase ARAF YDYD (constitutively active variant), ATP 1 µM, singlicate
# T17 construct: purchased Reaction Biology (assay service)
# Protocol: as §1
# [18] = target: T18, 350 wild-type kinases (Homo sapiens, UniProt Q00537); conditions: kinase CDK17/p35NCK, ATP 3 µM, singlicate
# T18 construct: purchased Reaction Biology (assay service)
# T18 sequence (Q00537 whole entry): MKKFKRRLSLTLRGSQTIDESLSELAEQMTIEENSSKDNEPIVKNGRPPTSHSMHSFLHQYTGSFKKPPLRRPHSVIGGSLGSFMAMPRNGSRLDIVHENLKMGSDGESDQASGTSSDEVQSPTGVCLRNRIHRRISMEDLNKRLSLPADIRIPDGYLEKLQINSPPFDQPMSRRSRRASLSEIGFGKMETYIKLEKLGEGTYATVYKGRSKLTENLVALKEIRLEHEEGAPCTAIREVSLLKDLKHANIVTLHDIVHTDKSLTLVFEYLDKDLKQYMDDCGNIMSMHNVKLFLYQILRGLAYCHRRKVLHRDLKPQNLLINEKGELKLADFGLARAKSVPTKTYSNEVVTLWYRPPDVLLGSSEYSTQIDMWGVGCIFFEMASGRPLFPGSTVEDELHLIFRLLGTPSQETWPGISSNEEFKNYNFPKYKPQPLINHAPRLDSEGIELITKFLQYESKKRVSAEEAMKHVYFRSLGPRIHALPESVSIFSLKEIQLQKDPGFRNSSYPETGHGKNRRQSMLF
# Protocol: as §1
# [19] = target: T19, 350 wild-type kinases (Homo sapiens, UniProt P15056); conditions: kinase BRAF, ATP 1 µM, singlicate
# T19 construct: purchased Reaction Biology (assay service)
# Protocol: as §1
# [20] = target: T20, 350 wild-type kinases (Homo sapiens, UniProt O14965); conditions: kinase AuroraA, ATP 10 µM, singlicate
# T20 construct: purchased Reaction Biology (assay service)
# T20 sequence (O14965 whole entry): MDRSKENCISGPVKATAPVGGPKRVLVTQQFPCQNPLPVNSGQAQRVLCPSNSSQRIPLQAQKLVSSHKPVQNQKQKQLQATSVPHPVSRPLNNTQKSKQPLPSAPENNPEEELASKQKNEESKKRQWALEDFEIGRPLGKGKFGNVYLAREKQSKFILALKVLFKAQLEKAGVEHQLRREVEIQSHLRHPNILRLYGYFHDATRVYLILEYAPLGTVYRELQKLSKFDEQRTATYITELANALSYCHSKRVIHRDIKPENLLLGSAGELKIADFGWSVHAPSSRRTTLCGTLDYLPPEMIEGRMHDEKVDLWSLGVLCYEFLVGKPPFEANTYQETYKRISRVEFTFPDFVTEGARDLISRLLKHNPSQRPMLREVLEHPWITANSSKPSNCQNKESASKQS
# Protocol: as §1
# [21] = target: T21, 350 wild-type kinases (Homo sapiens, UniProt P07333); conditions: kinase CSF1R, ATP 0,3 µM, singlicate
# T21 construct: purchased Reaction Biology (assay service)
# Protocol: as §1
# [22] = target: T22, 350 wild-type kinases (Homo sapiens, UniProt Q07002); conditions: kinase CDK18/CycY, ATP 1 µM, singlicate
# T22 construct: purchased Reaction Biology (assay service)
# T22 sequence (Q07002 whole entry): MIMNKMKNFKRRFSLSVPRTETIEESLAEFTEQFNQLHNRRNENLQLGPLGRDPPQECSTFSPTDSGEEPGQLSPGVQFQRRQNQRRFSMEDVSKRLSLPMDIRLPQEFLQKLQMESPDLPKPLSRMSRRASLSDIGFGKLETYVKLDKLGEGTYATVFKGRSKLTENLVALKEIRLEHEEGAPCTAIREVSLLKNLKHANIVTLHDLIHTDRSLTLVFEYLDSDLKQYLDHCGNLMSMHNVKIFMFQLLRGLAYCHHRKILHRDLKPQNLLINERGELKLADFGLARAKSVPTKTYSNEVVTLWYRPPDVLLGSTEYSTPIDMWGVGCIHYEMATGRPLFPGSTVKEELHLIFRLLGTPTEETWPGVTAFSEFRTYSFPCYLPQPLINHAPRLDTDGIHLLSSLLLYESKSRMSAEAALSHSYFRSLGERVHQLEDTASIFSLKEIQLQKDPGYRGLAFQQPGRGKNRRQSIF
# Protocol: as §1
# [23] = target: T23, 350 wild-type kinases (Homo sapiens, UniProt P53355); conditions: kinase DAPK1, ATP 0,1 µM, singlicate
# T23 construct: purchased Reaction Biology (assay service)
# Protocol: as §1
# [24] = target: T24, 350 wild-type kinases (Homo sapiens, UniProt Q9Y243); conditions: kinase AKT3, ATP 3 µM, singlicate
# T24 construct: purchased Reaction Biology (assay service)
# Protocol: as §1
# T1 sequence (Q13554 whole entry): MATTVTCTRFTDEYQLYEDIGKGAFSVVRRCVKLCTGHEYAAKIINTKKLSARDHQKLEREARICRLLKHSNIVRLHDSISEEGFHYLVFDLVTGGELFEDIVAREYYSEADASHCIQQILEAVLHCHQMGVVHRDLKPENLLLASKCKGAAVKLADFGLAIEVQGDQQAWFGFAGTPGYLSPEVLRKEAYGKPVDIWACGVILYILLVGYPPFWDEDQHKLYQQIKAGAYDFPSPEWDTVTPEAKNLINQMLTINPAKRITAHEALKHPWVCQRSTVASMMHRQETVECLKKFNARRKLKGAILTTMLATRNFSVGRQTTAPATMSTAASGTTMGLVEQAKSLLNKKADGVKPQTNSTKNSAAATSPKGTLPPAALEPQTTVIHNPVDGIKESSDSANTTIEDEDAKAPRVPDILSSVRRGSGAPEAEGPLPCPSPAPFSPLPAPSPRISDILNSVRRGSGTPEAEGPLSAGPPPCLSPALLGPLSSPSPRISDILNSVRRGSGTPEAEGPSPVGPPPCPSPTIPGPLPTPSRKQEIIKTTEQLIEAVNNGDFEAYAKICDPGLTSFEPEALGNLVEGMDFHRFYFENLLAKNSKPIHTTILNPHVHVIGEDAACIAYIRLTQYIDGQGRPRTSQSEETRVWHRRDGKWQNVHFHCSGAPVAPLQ
compound,measurement,setting,value
CCSc1nc(NC)c2c(-c3cccc(NC(=O)Nc4cc(C(C)(C)C)nn4-c4ccc(C)cc4)c3)c[nH]c2n1 [Compound 32],"Residual activity (% of control), CAMK2B",[1]; Assay Conc. 1.0E-05 M,83 % of control
same,"Residual activity (% of control), CAMK2B",[1]; Assay Conc. 1.0E-06 M,116 % of control
same,"Residual activity (% of control), CDK8/CycC",[2]; Assay Conc. 1.0E-05 M,36 % of control
same,"Residual activity (% of control), CDK8/CycC",[2]; Assay Conc. 1.0E-06 M,91 % of control
same,remaining activity at 1 µM,[3],< 50%
same,"Residual activity (% of control), CDK16/CycY",[4]; Assay Conc. 1.0E-05 M,88 % of control
same,"Residual activity (% of control), CDK16/CycY",[4]; Assay Conc. 1.0E-06 M,113 % of control
same,"Residual activity (% of control), AKT2",[5]; Assay Conc. 1.0E-05 M,88 % of control
same,"Residual activity (% of control), AKT2",[5]; Assay Conc. 1.0E-06 M,117 % of control
same,"Residual activity (% of control), CK1epsilon",[6]; Assay Conc. 1.0E-05 M,74 % of control
same,"Residual activity (% of control), CK1epsilon",[6]; Assay Conc. 1.0E-06 M,97 % of control
same,"Residual activity (% of control), CLK1",[7]; Assay Conc. 1.0E-05 M,54 % of control
same,"Residual activity (% of control), CLK1",[7]; Assay Conc. 1.0E-06 M,86 % of control
same,"Residual activity (% of control), AuroraC",[8]; Assay Conc. 1.0E-05 M,77 % of control
same,"Residual activity (% of control), AuroraC",[8]; Assay Conc. 1.0E-06 M,105 % of control
same,"Residual activity (% of control), CK1delta",[9]; Assay Conc. 1.0E-05 M,85 % of control
same,"Residual activity (% of control), CK1delta",[9]; Assay Conc. 1.0E-06 M,98 % of control
same,"Residual activity (% of control), CDK13/CycK",[10]; Assay Conc. 1.0E-05 M,71 % of control
same,"Residual activity (% of control), CDK13/CycK",[10]; Assay Conc. 1.0E-06 M,83 % of control
same,"Residual activity (% of control), CHK1",[11]; Assay Conc. 1.0E-05 M,72 % of control
same,"Residual activity (% of control), CHK1",[11]; Assay Conc. 1.0E-06 M,110 % of control
same,"Residual activity (% of control), CAMK4",[12]; Assay Conc. 1.0E-05 M,100 % of control
same,"Residual activity (% of control), CAMK4",[12]; Assay Conc. 1.0E-06 M,113 % of control
same,"Residual activity (% of control), DYRK1A",[13]; Assay Conc. 1.0E-05 M,48 % of control
same,"Residual activity (% of control), DYRK1A",[13]; Assay Conc. 1.0E-06 M,75 % of control
same,"Residual activity (% of control), CDK3/CycC",[14]; Assay Conc. 1.0E-05 M,65 % of control
same,"Residual activity (% of control), CDK3/CycC",[14]; Assay Conc. 1.0E-06 M,106 % of control
same,"Residual activity (% of control), CDK3/CycE1",[14]; Assay Conc. 1.0E-05 M,75 % of control
same,"Residual activity (% of control), CDK3/CycE1",[14]; Assay Conc. 1.0E-06 M,115 % of control
same,"Residual activity (% of control), DAPK3",[15]; Assay Conc. 1.0E-05 M,82 % of control
same,"Residual activity (% of control), DAPK3",[15]; Assay Conc. 1.0E-06 M,98 % of control
same,"Residual activity (% of control), CDK14/CycY",[16]; Assay Conc. 1.0E-05 M,75 % of control
same,"Residual activity (% of control), CDK14/CycY",[16]; Assay Conc. 1.0E-06 M,102 % of control
same,"Residual activity (% of control), ARAF YDYD",[17]; Assay Conc. 1.0E-05 M,89 % of control
same,"Residual activity (% of control), ARAF YDYD",[17]; Assay Conc. 1.0E-06 M,116 % of control
same,"Residual activity (% of control), CDK17/p35NCK",[18]; Assay Conc. 1.0E-05 M,53 % of control
same,"Residual activity (% of control), CDK17/p35NCK",[18]; Assay Conc. 1.0E-06 M,89 % of control
same,"Residual activity (% of control), BRAF",[19]; Assay Conc. 1.0E-05 M,65 % of control
same,"Residual activity (% of control), BRAF",[19]; Assay Conc. 1.0E-06 M,98 % of control
same,"Residual activity (% of control), AuroraA",[20]; Assay Conc. 1.0E-05 M,74 % of control
same,"Residual activity (% of control), AuroraA",[20]; Assay Conc. 1.0E-06 M,96 % of control
same,"Residual activity (% of control), CSF1R",[21]; Assay Conc. 1.0E-05 M,71 % of control
same,"Residual activity (% of control), CSF1R",[21]; Assay Conc. 1.0E-06 M,100 % of control
same,"Residual activity (% of control), CDK18/CycY",[22]; Assay Conc. 1.0E-05 M,73 % of control
same,"Residual activity (% of control), CDK18/CycY",[22]; Assay Conc. 1.0E-06 M,110 % of control
same,"Residual activity (% of control), DAPK1",[23]; Assay Conc. 1.0E-05 M,78 % of control
same,"Residual activity (% of control), DAPK1",[23]; Assay Conc. 1.0E-06 M,95 % of control
same,"Residual activity (% of control), AKT3",[24]; Assay Conc. 1.0E-05 M,113 % of control
same,"Residual activity (% of control), AKT3",[24]; Assay Conc. 1.0E-06 M,115 % of control
